Experimental data: article PMC11393688, “Design and synthesis of new 1,2,4-oxadiazole/quinazoline-4-one hybrids with antiproliferative activity as multitargeted inhibitors” (Frontiers in Chemistry, 2024)

Tests used:
[1] = tested on: lung cancer (A-549) cell line; experiment: Antiproliferative MTT assay, A-549; format: cell-based; details: Homo sapiens, A549, A-549 lung cancer cells, read-out: Antiproliferative activity IC50 ± SEM A-549
Method: (§1) 4.2.1.2. Assay for antiproliferative effect
(§2) To explore the antiproliferative potential of compounds MTT assay was performed according to previously reported procedure using different cell lines to explore the antiproliferative potential of […]
(§3) calculate the total nuclear DNA, a fluorescent dye (propidium iodide, PI) is used which can attach to the DNA, thus offering a quick and precise technique. PI cannot pass through the cell membrane and its signal intensity can be considered as directly proportional to quantity of cellular DNA.
(§4) Cells whose cell membranes are damaged or have changed permeability are counted as dead ones.
(§5) The assay was performed by seeding the cells of different cell lines at a density of 3000-7500 cells/well (in 200µl medium) in culture plates followed by incubation for 24h at 37 °C in humidified 5% CO2/95% air atmospheric conditions. The medium was removed; the compounds were added to the plates at 10 µM concentrations (in 0.1% DMSO) in triplicates, followed by incubation for 48 h. DMSO (0.1%) was used as control. After incubation, medium was removed […]
(§6) 80 °C, the plates were allowed to freeze for 24 h, followed by thawing at 25 °C. […]
(§7) (Polar-Star BMG Tech) was used to record the readings at excitation and emission wavelengths of 530 and 620 nm for each well. The percentage cytotoxicity of compounds was calculated using […]
(§8) Where ATC= Absorbance of treated cells and AC= Absorbance of control. Erlotinib was used as positive control in the assay.

[2] = tested on: pancreatic cancer (Panc-1) cell line; experiment: Antiproliferative MTT assay, Panc-1; format: cell-based; details: Homo sapiens, Panc-1 pancreatic cancer cells, read-out: Antiproliferative activity IC50 ± SEM Panc-1
Method: as §1, §2, §3, §4, §5, §6, §7, §8

[3] = tested on: colon cancer (HT-29) cell line; experiment: Antiproliferative MTT assay, HT-29; format: cell-based; details: Homo sapiens, HT-29 colon cancer cells, read-out: Antiproliferative activity IC50 ± SEM HT-29
[4] = tested on: breast cancer (MCF-7) cell line; experiment: Antiproliferative MTT assay, MCF-7; format: cell-based; details: Homo sapiens, MCF7, MCF-7 breast cancer cells, read-out: Antiproliferative activity IC50 ± SEM MCF-7
Method: as §1, §2, §3, §4, §5, §6, §7, §8

[5] = Cell viability, MTT test on normal cell line; format: cell-based; details: human, MCF-10A mammary gland epithelial cells (normal cell line), MCF-10A normal cells, 4 days incubation
Method: The human mammary gland epithelial (MCF-10A) normal cell line was used to test the viability of novel compounds 9a-o ([Mahmoud et al., 2022]; [Mekheimer et al., 2022]). After 4 days of incubation on MCF-10A cells, the cell viability of compounds 9a-o was determined using the MTT test.
The human mammary gland epithelial (MCF-10A) normal cell line was used to test the viability of compounds 9a-o ([Mahmoud et al., 2022]; [Mekheimer et al., 2022]). Refer to Supplementary Appendix A (Supplementary Material) for more details.
4.2. Biological evaluation
4.2.1. Cytotoxic activity using MTT Assay and evaluation of IC50
MTT assay was carried out to study the effect of compounds on mammary epithelial cells (MCF-10A). The medium in which cells were propagated contained Dulbecco's modified Eagle's medium (DMEM)/ Ham's F-12 medium (1:1) supplemented with epidermal growth factor (20 ng/mL), hydrocortisone (500 ng/mL), insulin (10 μg/mL), 2 mM glutamine and 10% foetal calf serum.
After every 2-3 days, the cells were passaged using trypsin ethylenediamine tetra acetic acid (EDTA). The cells were seeded at a density of 10^4 cells mL-1 in flat-bottomed culture plates containing 96 wells each. After 24 h, medium was removed from the plates and the compounds in (in 0.1% DMSO) were added (in 200 μL medium to yield a final concentration of 0.1% v/v) to the wells of plates. A single compound was designated with four wells followed by incubation of plates for 96h at 37°C. After incubation, medium was removed completely from the plates followed by addition of MTT (0.4 mg/mL in medium) to each well and subsequent incubation of plates for 3h. MTT (along with the medium) was removed and DMSO (150μL) was added to each well of the culture plates, followed by vertexing and subsequent measurement of absorbance (at 540 nm) using microplate reader. The data are shown as percentage inhibition of proliferation in comparison with controls containing 0.1% DMSO.

[6] = tested on: four human cancer cell lines (HT-29, Panc-1, A-549, MCF-7); experiment: Average antiproliferative activity (GI50) over four cancer cell lines; format: cell-based; details: average IC50 against the four cancer cell lines
Method: as §1, §2, §3, §4, §5, §6, §7, §8

EGFR = target: T1, EGFR (Homo sapiens, UniProt P00533); experiment: EGFR-TK inhibitory assay; format: biochemical; details: read-out: EGFR inhibition IC50 ± SEM
T1 construct: amino acids 645–1186; His6 (N); made in house; host or cells: Sf-9 insect cells (baculovirus; pBlueBacHis2B / pFASTBacHTc)
T1 sequence (P00533 669-1210): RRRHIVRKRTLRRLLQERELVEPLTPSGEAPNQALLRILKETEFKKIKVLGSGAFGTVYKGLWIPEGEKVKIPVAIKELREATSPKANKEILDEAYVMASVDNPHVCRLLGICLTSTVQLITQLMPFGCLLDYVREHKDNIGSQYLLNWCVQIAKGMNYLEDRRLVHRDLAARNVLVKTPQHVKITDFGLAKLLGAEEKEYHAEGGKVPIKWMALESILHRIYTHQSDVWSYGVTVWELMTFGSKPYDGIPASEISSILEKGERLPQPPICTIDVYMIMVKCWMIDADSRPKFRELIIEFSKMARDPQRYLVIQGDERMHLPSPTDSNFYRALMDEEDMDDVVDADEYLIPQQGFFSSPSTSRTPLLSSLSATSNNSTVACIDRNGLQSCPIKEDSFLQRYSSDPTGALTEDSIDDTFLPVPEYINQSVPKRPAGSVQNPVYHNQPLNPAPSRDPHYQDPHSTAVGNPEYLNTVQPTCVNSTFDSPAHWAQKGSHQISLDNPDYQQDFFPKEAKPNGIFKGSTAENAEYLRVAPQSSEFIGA
Method: 4.2.1.3. EGFR inhibitory assay
Sf-9 cells were infected for 72h for protein expression. […]
centrifugation for 20 min.
Histidine-linked proteins were first eluted with 250 and then […]
using wash buffer. Europium-tagged antiphosphotyrosine antibody (75 µL, 400 ng) was added to each well followed by incubation of 1h and then washing of the plates using buffer. The enhancement solution was added to each well and the signal was recorded at excitation and […]
The autophosphorylation percentage inhibition by compounds was calculated using the following equation: […]
(1 picture or pasted object on this page, not shown here)

BRAF^V600E = target: T2, BRAF^V600E (Homo sapiens, UniProt P15056, V600E); experiment: BRAF^V600E kinase inhibitory assay; format: biochemical, Mouse; details: read-out: BRAF^V600E inhibition IC50 ± SEM
T2 construct: Mouse full-length GST-tagged BRAFV600E; GST; purchased Invitrogen PV3849
T2 sequence (P15056 2-766 V600E limits assumed): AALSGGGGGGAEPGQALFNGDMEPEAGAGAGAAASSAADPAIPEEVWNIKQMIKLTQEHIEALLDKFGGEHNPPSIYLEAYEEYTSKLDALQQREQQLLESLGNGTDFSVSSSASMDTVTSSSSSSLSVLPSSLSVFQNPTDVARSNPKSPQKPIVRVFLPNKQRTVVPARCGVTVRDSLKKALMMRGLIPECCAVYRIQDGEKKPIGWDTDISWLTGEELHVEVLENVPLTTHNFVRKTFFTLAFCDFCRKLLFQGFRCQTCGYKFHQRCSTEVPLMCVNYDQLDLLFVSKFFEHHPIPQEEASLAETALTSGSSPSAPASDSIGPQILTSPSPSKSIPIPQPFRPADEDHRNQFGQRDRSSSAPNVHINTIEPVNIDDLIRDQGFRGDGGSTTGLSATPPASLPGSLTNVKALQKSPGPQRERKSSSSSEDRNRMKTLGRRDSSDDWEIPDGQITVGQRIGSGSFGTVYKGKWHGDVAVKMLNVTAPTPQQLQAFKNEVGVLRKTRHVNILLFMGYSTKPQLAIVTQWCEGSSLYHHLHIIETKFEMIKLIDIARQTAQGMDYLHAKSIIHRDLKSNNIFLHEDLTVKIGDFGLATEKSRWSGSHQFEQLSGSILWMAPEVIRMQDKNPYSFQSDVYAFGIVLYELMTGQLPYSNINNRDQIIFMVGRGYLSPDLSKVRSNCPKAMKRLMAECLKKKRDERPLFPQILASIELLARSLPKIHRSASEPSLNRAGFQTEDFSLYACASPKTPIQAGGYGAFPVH
Method: Refer to Supplementary Appendix A for more details. […]
4.2.1.4. BRAF kinase assay […]
against BRAF. Mouse full-length GST-tagged BRAFV600E (7.5 ng, Invitrogen, PV3849) was pre-incubated with drug (1 µL) and assay dilution buffer (4 µL) for 60 min at 25 °C. In assay dilution buffer, a solution (5 µL) containing MgCl2 (30 mM), ATP (200 µM), recombinant human full length (200 ng) […] N-terminal His-tagged MEK1 (Invitrogen) was added to start the assay, subsequent to incubation for 25 min at 25 °C. The assay was stopped using 5X protein denaturing buffer (LDS) solution (5 µL). To further denature the protein, heat (70° C) was applied for 5 min.
10 µL of each reaction was loaded into the precast plates and electrophoresis was allowed to proceed. After completion of electrophoresis, the front part of the precast gel plate (holding hot ATP) was cut and afterwards cast-off. The dried gel was developed using a phosphor screen. A […]
served as positive control. […]
(FITC) and propidium iodide (PI) staining kit (BD Pharmingen, San Diego, USA). […]
4.3. Statistical analysis
Computerized Prism 5 program was used to statistically analyzed data using one-way ANOVA test followed by Tukey’s as post ANOVA for multiple comparison at P ≤.05. Data were presented

SMILES	melting point [°C]	IC50 [1] [nM]	IC50 [2] [nM]	IC50 [3] [nM]	IC50 [4] [nM]	GI50 [6] [nM]	IC50 (EGFR) [nM]	IC50 (BRAF^V600E) [nM]	viability at 96 h, 50 µM [5] [%]
O=c1c2ccccc2nc(SCc2nc(-c3ccccc3)no2)n1-c1ccccc1 [Compound 9a, 2-((3-Phenyl-1,2,4-oxadiazol-5-yl)methylthio)-3-phenylquinazolin-4(3H)-one]	162 to 164	46 ± 4	48 ± 4	48 ± 4	50 ± 4	48	–	–	90
Cc1ccc(-n2c(SCc3nc(-c4ccc(Cl)cc4)no3)nc3ccccc3c2=O)cc1 [Compound 9e, 2-((3-(4-Chlorophenyl)-1,2,4-oxadiazol-5-yl)methylthio)-3-p-tolylquinazolin-4(3H)-one]	156 to 158	40 ± 3	42 ± 4	42 ± 4	44 ± 4	42	–	–	91
C#Cc1cccc(Nc2ncnc3cc(OCCOC)c(OCCOC)cc23)c1 [Erlotinib, reference compound]	–	30 ± 3	30 ± 3	30 ± 3	40 ± 3	33	–	–	–
CCn1c(SCc2nc(-c3ccc(OC)cc3)no2)nc2ccccc2c1=O [Compound 9l, 2-((3-(4-Methoxyphenyl)-1,2,4-oxadiazol-5-yl)methylthio)-3-ethylquinazolin-4(3H)-one]	134 to 136	36 ± 3	38 ± 3	37 ± 3	40 ± 4	38	91 ± 7	70 ± 5	90
C=CCn1c(SCc2nc(-c3ccc(OC)cc3)no2)nc2ccccc2c1=O [Compound 9o, 2-((3-(4-Methoxyphenyl)-1,2,4-oxadiazol-5-yl)methylthio)-3-allylquinazolin 4(3H)-one]	122 to 124	56 ± 4	57 ± 5	57 ± 5	59 ± 5	57	–	–	89
C=CCn1c(SCc2nc(-c3ccccc3)no2)nc2ccccc2c1=O [Compound 9m, 2-((3-Phenyl-1,2,4-oxadiazol-5-yl)methylthio)-3-allylquinazolin-4(3H)-one]	110 to 112	62 ± 6	64 ± 6	62 ± 6	65 ± 6	63	–	–	92
CCn1c(SCc2nc(-c3ccc(Cl)cc3)no2)nc2ccccc2c1=O [Compound 9k, 2-((3-(4-Chlorophenyl)-1,2,4-oxadiazol-5-yl)methylthio)-3-ethylquinazolin-4(3H)-one]	118 to 120	32 ± 3	34 ± 3	34 ± 3	35 ± 3	34	84 ± 6	62 ± 5	93
COc1ccc(-c2noc(CSc3nc4ccccc4c(=O)n3-c3cccc(C)c3)n2)cc1 [Compound 9i, 2-((3-(4-Methoxyphenyl)-1,2,4-oxadiazol-5-yl)methylthio)-3-m-tolylquinazolin-4(3H)-one]	194 to 196	65 ± 6	66 ± 6	68 ± 6	69 ± 6	67	–	–	91
Cc1cccc(-n2c(SCc3nc(-c4ccccc4)no3)nc3ccccc3c2=O)c1 [Compound 9g, 2-((3-Phenyl-1,2,4-oxadiazol-5-yl)methylthio)-3-m-tolylquinazolin-4(3H)-one]	170 to 172	49 ± 4	50 ± 5	50 ± 5	52 ± 5	50	–	–	90

Further compounds by falling IC50 [1], results first:

melting point [°C]	IC50 [1] [nM]	IC50 [2] [nM]	IC50 [3] [nM]	IC50 [4] [nM]	GI50 [6] [nM]	IC50 (EGFR) [nM]	IC50 (BRAF^V600E) [nM]	SMILES	viability at 96 h, 50 µM [5] [%]
114 to 116	69 ± 6	68 ± 6	68 ± 6	76 ± 7	70	–	–	CCn1c(SCc2nc(-c3ccccc3)no2)nc2ccccc2c1=O [Compound 9j, 2-((3-Phenyl-1,2,4-oxadiazol-5-yl)methylthio)-3-ethylquinazolin-4(3H)-one]	90
168 to 170	54 ± 4	54 ± 5	55 ± 5	58 ± 5	55	–	–	Cc1ccc(-n2c(SCc3nc(-c4ccccc4)no3)nc3ccccc3c2=O)cc1 [Compound 9d, 2-((3-Phenyl-1,2,4-oxadiazol-5-yl)methylthio)-3-p-tolylquinazolin-4(3H)-one]	90
165 to 167	50 ± 4	52 ± 5	52 ± 5	53 ± 5	52	–	–	COc1ccc(-c2noc(CSc3nc4ccccc4c(=O)n3-c3ccc(C)cc3)n2)cc1 [Compound 9f, 2-((3-(4-Methoxyphenyl)-1,2,4-oxadiazol-5-yl)methylthio)-3-p-tolylquinazolin-4(3H)-one]	92
115 to 117	43 ± 4	45 ± 4	44 ± 4	47 ± 4	45	–	–	C=CCn1c(SCc2nc(-c3ccc(Cl)cc3)no2)nc2ccccc2c1=O [Compound 9n, 2-((3-(4-Chlorophenyl)-1,2,4-oxadiazol-5-yl)methylthio)-3-allylquinazolin-4(3H)-one]	91
